# Data taken from publication PMC4977651, “Molecular features of biguanides required for targeting of mitochondrial respiratory complex I and activation of AMP-kinase” (BMC Biology, 2016).
# Where “and” joins values, the source holds several entries; their conditions need not be identical. Equal entries are not always repeated.
# Legend:
# [1] = system: bovine mitochondrial membranes (complexes II-III-IV); assay: Succinate:O2 oxidoreduction (complexes II-III-IV, complex II assay) by bovine mitochondrial membranes; assay type: biochemical, Bos taurus; conditions: biguanide concentrations set to the IC50 values for NADH:O2 on bovine membranes; control = 100.00; n = 3
# Protocol: Assays were performed at 32 °C in a SpectraMax 96-well plate reader. NADH:decylubiquinone oxidoreduction by complex I at 0.5 μg mL^−1 was measured in 20 mM Tris-HCl (pH 7.2), 0.15 % soy bean asolectin (Avanti Polar Lipids), and 0.15 % 3-((3-cholamidopropyl)dimethylammonium)-1-propanesulfonate (CHAPS, Merck Chemicals Ltd), with 200 μM decylubiquinone and 200 μM NADH, and monitored using ε340–380(NADH) = 4.81 mM^−1 cm^−1 [23]. Catalysis was initiated by addition of NADH and maximal rates determined by linear regression. NADH:O2 oxidoreduction by membranes was measured similarly but using 5 μg mL^−1 membranes in 10 mM Tris-HCl (pH 7.4) and 250 mM sucrose using 200 μM NADH and supplemented with 0.15 mM horse heart cytochrome c (Sigma-Aldrich Ltd.). Succinate:O2 oxidoreduction was measured using 40 μg mL^−1 membranes in 5 mM succinate in 10 mM Tris-HCl (pH 7.4) as described previously. Control experiments included NaCl (to match the ionic strength) or DMSO, as appropriate.
# [2] = Octanol/PBS partition coefficient, shake-flask method; assay type: physicochemical; conditions: 32 °C, pH 7.4, n = 3
# Protocol: Octanol/PBS partition coefficients were measured by the shake-flask method at 32 °C, pH 7.4.
# permeabilized MDBK cells = assay: ADP-stimulated rotenone-sensitive OCR in permeabilized MDBK cells; assay type: cell-based, Bos taurus; design: rotenone sensitive OCR after ADP stimulation, average / rotenone sensitive OCR after ADP stimulation: unit not given here; conditions: MDBK permeabilised cells; for rotenone sensitive OCR after ADP stimulation, % of control, average / rotenone sensitive OCR after ADP stimulation, average: average of replicates
# Protocol: For permeabilized cell experiments, cells were seeded into XF96 plates at 0.9–1.1 × 10^4 per well and incubated for 48 h at 37 °C in 5 % CO2. Then, the growth medium was exchanged for assay buffer containing 3 nM plasma membrane permeabilizer ‘PMP’ (Seahorse Biosciences Inc.), 10 mM glutamate, 10 mM malate, 220 mM mannitol, 70 mM sucrose, 10 mM KH2PO4, 5 mM MgCl2, 1 mM EGTA, 0.2 % fatty acid-free bovine serum albumin (BSA), and 2 mM HEPES (pH 7.4 at 37 °C). […] The biguanides were allowed to accumulate for 30 min, then respiration was […] by the addition of 4 mM ADP. Rotenone was added (2 μM) at the end of the experiment.
# Rotenone-sensitive OCRs were calculated by subtracting the rotenone-insensitive rates (determined at the end of the experiment). OCRs were normalized by dividing by the OCR recorded immediately prior to the addition of biguanide. For rate of uptake calculations, the OCRs at time points after biguanide addition were divided by the OCRs at the same time points in control experiments. Data from wells with failed port injections were excluded from the analyses. The respiratory control ratio (RCR) values (state III versus state IV respiration) were ~11 and ~6 for permeabilized MDBK and 143B cells, respectively.
# mouse heart mitochondria = assay: ADP-stimulated rotenone-sensitive OCR in isolated mouse heart mitochondria; assay type: biochemical; design: rotenone sensitive OCR after ADP stimulation, individual replicates / rotenone sensitive OCR after ADP stimulation, average / rotenone sensitive OCR after 15 mins, average: unit not given here
# Protocol: (§1) Complex I and mitochondrial membranes were prepared from Bos taurus (bovine) heart. Intact mitochondria were isolated from rat liver and mouse heart and liver. Membranes were prepared from mouse heart mitochondria by 5 s bursts of sonication at 4 °C and collected by centrifugation (75,000 × g, 1 h).
# Isolated mitochondria were monitored using a Seahorse XF96 extracellular flux analyzer at 32 °C. Mouse heart mitochondria, and mouse and rat liver mitochondria were plated into XF96 plates at 4 and 16–20 μg per well, respectively, in 220 mM mannitol, 70 mM sucrose, 10 mM KH2PO4, 5 mM MgCl2, 1 mM EGTA, 0.2 % fatty acid-free BSA, and 2 mM HEPES (pH 7.4 at 37 °C) with 10 mM glutamate and 10 mM malate and adhered by centrifugation (2000 × g, 20 min, 4 °C). The medium was supplemented with a further 5 mM glutamate and 5 mM malate and the mitochondria incubated for 15 min. Then two baseline readings were taken before the biguanides were added at IC50/5. […] Rotenone (2 μM) was added at the end of the experiment. Data from wells with failed port injections were excluded from the analyses. The RCR values (state III versus state IV respiration) were 3.4, 4.8, and 4.6 for mouse heart, rat liver, and mouse liver, respectively.
# rat liver mitochondria = assay: ADP-stimulated rotenone-sensitive OCR in isolated rat liver mitochondria; assay type: biochemical; design: rotenone sensitive OCR after ADP stimulation, individual replicates / rotenone sensitive OCR after ADP stimulation, average: unit not given here
# Protocol: as §1
# (§2) Isolated mitochondria were monitored using a Seahorse XF96 extracellular flux analyzer at 32 °C. Mouse heart mitochondria, and mouse and rat liver mitochondria were plated into XF96 plates at 4 and 16–20 μg per well, respectively, in 220 mM mannitol, 70 mM sucrose, 10 mM KH2PO4, 5 mM MgCl2, 1 mM EGTA, 0.2 % fatty acid-free BSA, and 2 mM HEPES (pH 7.4 at 37 °C) with 10 mM glutamate and 10 mM malate and adhered by centrifugation (2000 × g, 20 min, 4 °C). The medium was supplemented with a further 5 mM glutamate and 5 mM malate and the mitochondria incubated for 15 min. Then two baseline readings were taken before the biguanides were added at IC50/5. Biguanides were allowed to accumulate for 15–20 min before respiration was […] by the addition of 4 mM ADP. Rotenone (2 μM) was added at the end of the experiment. Data from wells with failed port injections were excluded from the analyses. The RCR values (state III versus state IV respiration) were 3.4, 4.8, and 4.6 for mouse heart, rat liver, and mouse liver, respectively.
# mouse liver mitochondria = assay: ADP-stimulated rotenone-sensitive OCR in isolated mouse liver mitochondria; assay type: biochemical; design: rotenone sensitive OCR after ADP stimulation, individual replicates / rotenone sensitive OCR after ADP stimulation, average: unit not given here
# Protocol: as §1, §2
# [3] = individual replicates, biguanide at IC50/5
compound,measurement,setting,value
"CC(C)N=C(N)N=C(N)NC(C)C [compound 5, N-(propan-2-yl)-1-3-(propan-2-yl)carbamimidamidomethanimidamide]","Complex II assay (succinate:O2 oxidoreduction), average",[1],100.71
same,P (partition coefficient),[2],3.371
same,logP,[2],0.528
same,"rotenone sensitive OCR after ADP stimulation, % of control, average",permeabilized MDBK cells,94.54 % of control
same,"rotenone sensitive OCR after ADP stimulation, average",permeabilized MDBK cells,266.44
same,"rotenone sensitive OCR after ADP stimulation, % of control, average",permeabilized MDBK cells; biguanide at IC50/5,94.54 % of control
same,"rotenone sensitive OCR after ADP stimulation, average",permeabilized MDBK cells; biguanide at IC50/5,266.44
same,rotenone sensitive OCR after ADP stimulation,permeabilized MDBK cells; [3],341.66 and 308.83 and 224.55 and 216.86 and 280.18 and 213.17 and 210.97 and 335.32
same,"rotenone sensitive OCR after ADP stimulation, % of control",permeabilized MDBK cells; [3],121.23 % of control and 109.59 % of control and 79.68 % of control and 76.95 % of control and 99.42 % of control and 75.64 % of control and 74.86 % of control and 118.98 % of control
same,"rotenone sensitive OCR after ADP stimulation, % of control, average",mouse heart mitochondria; average of replicates,111.59 % of control
same,"rotenone sensitive OCR after ADP stimulation, average",mouse heart mitochondria; average of replicates,270.26
same,"rotenone sensitive OCR after ADP stimulation, % of control, individual replicates",mouse heart mitochondria; replicate 1-11,121.74 % of control and 137.11 % of control and 79.19 % of control and 109.33 % of control and 124.83 % of control and 108.07 % of control and 108.05 % of control and 104.41 % of control
same,"rotenone sensitive OCR after ADP stimulation, individual replicates",mouse heart mitochondria; replicate 1-12,294.85 and 332.07 and 191.79 and 264.79 and 302.34 and 261.73 and 261.69 and 252.86
same,"rotenone sensitive OCR after ADP stimulation, % of control, average",rat liver mitochondria; average of replicates,92.45 % of control
same,"rotenone sensitive OCR after ADP stimulation, average",rat liver mitochondria; average of replicates,25.35
same,"rotenone sensitive OCR after ADP stimulation, % of control, individual replicates",rat liver mitochondria; replicate 1-5,107.71 % of control and 88.69 % of control and 80.94 % of control
same,"rotenone sensitive OCR after ADP stimulation, individual replicates",rat liver mitochondria; replicate 1-5,29.53 and 24.32 and 22.19
same,"rotenone sensitive OCR after ADP stimulation, % of control, average",mouse liver mitochondria; average of replicates,82.72 % of control
same,"rotenone sensitive OCR after ADP stimulation, average",mouse liver mitochondria; average of replicates,28.70
same,"rotenone sensitive OCR after ADP stimulation, % of control, individual replicates",mouse liver mitochondria; replicate 1-5,96.11 % of control and 71.97 % of control and 77.63 % of control and 85.15 % of control
same,"rotenone sensitive OCR after ADP stimulation, individual replicates",mouse liver mitochondria; replicate 1-5,33.35 and 24.97 and 26.94 and 29.54
